Reference: US8168860B2, “Compositions and methods for the modification of physiological responses in plants” (Rohm and Haas Company, priority 2007, dated 2012)

Key:
[1] = system: Wild-type, ein2-5 and p1002 Arabidopsis transformant seedlings; experiment: Triple response assay, Arabidopsis seedlings, root and hypocotyl growth with ethylene; format: in vivo; conditions: for Roots (mm) Avg / Hypocotyls (mm) Avg: 11 days
Experimental: A triple response assay (Guzman and Ecker, 1990 cited above, modified as described below) was used to determine the modulation of ethylene sensitivity in the transformed Arabidopsis plants of Example 4. Arabidopsis seed was surface-sterilized and imbibed in 20 μM inducer in the dark for 4 days at 4° C. The seed was plated on 0.5× MS with 1% sucrose and 20 μM inducer and for mutant receptors treated with 10 ppm ethylene or 1 ppm ethylene for wild-type receptors and grown in the dark for 4-8 days at 21° C. The response to ethylene was scored on the last day.
Wild-type, ein2-5 (an ethylene insensitive mutant control), and p1002 Arabidopsis transformant seedlings were assayed for ethylene insensitivity using the triple response assay (Guzman and Ecker, 1990, cited above, with the following modifications) in which seeds were germinated on 0.5× MS media for 11 days in the dark in the presence of 10 ppm ethylene. Root and hypocotyl growth is inhibited by ethylene in ethylene sensitive but not in ethylene insensitive seedlings.

[2] = system: transformed tobacco plants; experiment: Triple response assay, shoot length of transformed tobacco shoots in dark with ethylene; format: in vivo; conditions: tobacco plant 185-3 (VGE), induced, 10 μM inducer, ethylene about 10 ppm, 18 days
ACC oxidase = ACC oxidase expression in excised corn stalk sheath tissue, quantitative PCR; format: cell-based; conditions: for ACC Oxidase Expression (relative): normalized to 0 inducer/0 ACC; for AVG ACO Expression: average of corn lines
Experimental: Corn plants were transformed using the plasmids for Example 1 by microparticle bombardment. Putative transformants were selected using either actinonin or bialaphos and confirmed by PCR analysis. Positive transformants were backcrossed to inbred B73 to increase vigor. Transgenic corn plants produced as described above were tested for modulation of ethylene sensitivity. Modulation of ethylene sensitivity was determined at the molecular level by exposing plants to ethylene and measuring the change in induction of ethylene-induced genes.
Transgenic corn plants produced as described above were tested for modulation of ethylene sensitivity. Modulation of ethylene sensitivity was determined at the molecular level by exposing plants to ACC, the precursor of ethylene and measuring the change in induction of ethylene-induced genes. Stalk sheath tissue was excised from transgenic T0 corn plants growing in a green house and used in an in vitro bioassay. Excised tissue was treated with either water or 20 μM inducer for 2 days to induce expression of the ethylene insensitive etr1-1 transgene. Following the 2 day induction period, the tissue was treated for one day with 0, 1 or 10 μM ACC to produce ethylene and then harvested. Harvested tissue was immediately placed in RNAlater (Ambion). Total RNA was prepared from the tissue using MagMAX-96 Total RNA Isolation Kit (Ambion). Induction of an ethylene inducible gene (ACC oxidase) was measured using quantitative PCR on an Applied Biosystems 7900 HT Fast Real-Time PCR system (ABI). TaqMan Assay Kit (ABI) was used for reverse transcriptase (RT) and PCR using manufacturer recommended protocols. Corn 18s was used as an internal control to normalize expression for each sample.
Sequences for the primers and probes were as follows: […]
In order to determine gene expression, ACC oxidase expression in the 0 μM inducer plus 0 μM ACC control treatment was normalized for each respective corn line.

[3] = system: tomato seedlings (WT, p1002-18, p1003-16); experiment: Tomato seedling growth on 20 μM ACC and various levels of inducer; format: in vivo; conditions: 20 μM ACC; for Hypocotyl (mm) / Root (mm): 10 day old seedlings
Experimental: Homozygous tomato seeds from one p1002 containing and one p1003 containing line were germinated on medium containing 20 μM ACC and various levels of inducer (i.e., 0.5-20 μM).

[4] = Arabidopsis, presence of inducer, 10 ppm ethylene
[5] = Ein2-5 seedlings, 20 μM inducer, 10 ppm ethylene, dark
[6] = WT seedlings, 20 μM inducer, 10 ppm ethylene, dark
[7] = p1002-1-4 seedlings, 20 μM inducer, 10 ppm ethylene, dark
[8] = p1002-3-4 seedlings, 20 μM inducer, 10 ppm ethylene, dark
[9] = p1002-11-3 seedlings, 20 μM inducer, 10 ppm ethylene, dark
[10] = p1002-23-2 seedlings, 20 μM inducer, 10 ppm ethylene, dark
[11] = p1002-24-4 seedlings, 20 μM inducer, 10 ppm ethylene, dark
[12] = p1002-18 tomato, Inducer 0.5 μM
[13] = p1002-18 tomato, Inducer 2.5 μM
[14] = p1003-16 tomato, Inducer 0.5 μM
[15] = p1003-16 tomato, Inducer 2.5 μM

CCC(N(NC(=O)c1ccc2c(c1C)O[C@@H](CO)CO2)C(=O)c1cc(C)cc(C)c1)C(C)(C)C (stereo partly drawn) [inducer, 3,5 Dimethyl-benzoic acid N-(1-ethyl-2,2-dimethyl-propyl)-N′-(3S-hydroxymethyl-5-methyl-2,3-dihydro-benzo[1,4]dioxine-6-carbonyl)hydrazide]
root length of most p1002 transformants versus wild-type or ein2 mutant seedlings ([1]; Arabidopsis, inducer in the presence of silver, 10 ppm ethylene): not significantly longer
effect on hypocotyls of p1002 transformants [1, 4]: No effect was observed
root length of p1002 transformants relative to wild-type seedlings [1, 4]: significantly longer
Roots (mm) Avg ([1]; Ein2-5 seedlings, 20 μM inducer + 5 μM AgNO3, 10 ppm ethylene, dark): 12.4 mm
Hypocotyls (mm) Avg [1, 5]: ~30 mm
Roots (mm) Avg [1, 5]: 19.9 mm
Roots (mm) Avg ([1]; WT seedlings, 20 μM inducer + 5 μM AgNO3, 10 ppm ethylene, dark): 13.9 mm
Hypocotyls (mm) Avg [1, 6]: 12 mm
Roots (mm) Avg [1, 6]: 3.92 mm
Roots (mm) Avg ([1]; p1002-1-4 seedlings, 20 μM inducer + 5 μM AgNO3, 10 ppm ethylene, dark): 11.8 mm
Hypocotyls (mm) Avg [1, 7]: 12.3 mm
Roots (mm) Avg [1, 7]: 5.8 mm
Roots (mm) Avg ([1]; p1002-3-4 seedlings, 20 μM inducer + 5 μM AgNO3, 10 ppm ethylene, dark): 17.4 mm
Hypocotyls (mm) Avg [1, 8]: 12.7 mm
Roots (mm) Avg [1, 8]: 6.7 mm
Roots (mm) Avg ([1]; p1002-11-3 seedlings, 20 μM inducer + 5 μM AgNO3, 10 ppm ethylene, dark): 11.7 mm
Hypocotyls (mm) Avg [1, 9]: 12.1 mm
Roots (mm) Avg [1, 9]: 5.6 mm
Roots (mm) Avg ([1]; p1002-23-2 seedlings, 20 μM inducer + 5 μM AgNO3, 10 ppm ethylene, dark): 10.5 mm
Hypocotyls (mm) Avg [1, 10]: 12.1 mm
Roots (mm) Avg [1, 10]: 6.04 mm
Roots (mm) Avg ([1]; p1002-24-4 seedlings, 20 μM inducer + 5 μM AgNO3, 10 ppm ethylene, dark): 13.1 mm
Hypocotyls (mm) Avg [1, 11]: 12.2 mm
Roots (mm) Avg [1, 11]: 4.96 mm
ethylene insensitivity, based on increased shoot length and/or altered root growth compared to non-induced transgenic plants ([1]; transgenic Arabidopsis with etr1-1 cassettes, 20 μM inducer, ethylene, dark, 4-8 days): demonstrated ethylene insensitivity
Shoot Length Avg (cm) [2]: 5.6 cm
ACC Oxidase Expression (relative) (ACC oxidase; Corn Line 4.5, 20 μM inducer/0 ACC): 1.351
ACC Oxidase Expression (relative) (ACC oxidase; Corn Line 4.5, 20 μM inducer/1 μM ACC): 1.081
ACC Oxidase Expression (relative) (ACC oxidase; Corn Line 4.5, 20 μM inducer/10 μM ACC): 0.4184
ACC Oxidase Expression (relative) (ACC oxidase; Corn Line 4.6, 20 μM inducer/0 ACC): 1.148
ACC Oxidase Expression (relative) (ACC oxidase; Corn Line 4.6, 20 μM inducer/1 μM ACC): 0.7581
ACC Oxidase Expression (relative) (ACC oxidase; Corn Line 4.6, 20 μM inducer/10 μM ACC): 0.3348
ACC Oxidase Expression (relative) (ACC oxidase; Corn Line 4.7, 20 μM inducer/0 ACC): 0.7452
ACC Oxidase Expression (relative) (ACC oxidase; Corn Line 4.7, 20 μM inducer/1 μM ACC): 1.388
ACC Oxidase Expression (relative) (ACC oxidase; Corn Line 4.7, 20 μM inducer/10 μM ACC): 0.2557
ACC Oxidase Expression (relative) (ACC oxidase; Corn Line 10.2, 20 μM inducer/0 ACC): 1.378
ACC Oxidase Expression (relative) (ACC oxidase; Corn Line 10.2, 20 μM inducer/1 μM ACC): 0.4928
ACC Oxidase Expression (relative) (ACC oxidase; Corn Line 10.2, 20 μM inducer/10 μM ACC): 0.6761
ACC Oxidase Expression (relative) (ACC oxidase; Corn Line 10.4, 20 μM inducer/0 ACC): 0.3437
ACC Oxidase Expression (relative) (ACC oxidase; Corn Line 10.4, 20 μM inducer/1 μM ACC): 0.3591
ACC Oxidase Expression (relative) (ACC oxidase; Corn Line 10.4, 20 μM inducer/10 μM ACC): 1.821
ACC Oxidase Expression (relative) (ACC oxidase; Corn Line 10.5, 20 μM inducer/0 ACC): 0.6804
ACC Oxidase Expression (relative) (ACC oxidase; Corn Line 10.5, 20 μM inducer/1 μM ACC): 0.06813
ACC Oxidase Expression (relative) (ACC oxidase; Corn Line 10.5, 20 μM inducer/10 μM ACC): 0.1983
ACC Oxidase Expression (relative) (ACC oxidase; Corn Line B73, 20 μM inducer/0 ACC): 1.964
ACC Oxidase Expression (relative) (ACC oxidase; Corn Line B73, 20 μM inducer/1 μM ACC): 0.09506
ACC Oxidase Expression (relative) (ACC oxidase; Corn Line B73, 20 μM inducer/10 μM ACC): 0.2589
AVG ACO Expression (ACC oxidase; 20 μM inducer/0 ACC): 1.087
AVG ACO Expression (ACC oxidase; 20 μM inducer/1 μM ACC): 0.6061
AVG ACO Expression (ACC oxidase; 20 μM inducer/10 μM ACC): 0.5662
average expression of ACC oxidase in the transgenic corn lines (ACC oxidase; presence of inducer plus ACC): repressed
ethylene insensitivity, based on decreased expression of ethylene inducible genes (ACC oxidase; transgenic corn with etr1-1 cassettes, presence of inducing compound, exposed to ethylene): demonstrated ethylene insensitivity
Hypocotyl (mm) ([3]; WT tomato, Inducer 20 μM): 6.24 ± 2.75 mm
Root (mm) ([3]; WT tomato, Inducer 20 μM): 9.06 ± 14.8 mm
Hypocotyl (mm) [3, 12]: 8.40 ± 6.29 mm
Root (mm) [3, 12]: 12.0 ± 13.3 mm
Hypocotyl (mm) ([3]; p1002-18 tomato, Inducer 1 μM): 11.1 ± 7.41 mm
Root (mm) ([3]; p1002-18 tomato, Inducer 1 μM): 16.5 ± 16.6 mm
Hypocotyl (mm) [3, 13]: 13.5 ± 8.97 mm
Root (mm) [3, 13]: 16.0 ± 16.6 mm
Hypocotyl (mm) ([3]; p1002-18 tomato, Inducer 5 μM): 14.5 ± 7.75 mm
Root (mm) ([3]; p1002-18 tomato, Inducer 5 μM): 15.2 ± 8.39 mm
Hypocotyl (mm) ([3]; p1002-18 tomato, Inducer 10 μM): 19.8 ± 10.8 mm
Root (mm) ([3]; p1002-18 tomato, Inducer 10 μM): 22.7 ± 13.5 mm
Hypocotyl (mm) ([3]; p1002-18 tomato, Inducer 20 μM): 26.3 ± 11.9 mm
Root (mm) ([3]; p1002-18 tomato, Inducer 20 μM): 33.3 ± 12.8 mm
Hypocotyl (mm) [3, 14]: 17.0 ± 6.46 mm
Root (mm) [3, 14]: 14.4 ± 15.3 mm
Hypocotyl (mm) ([3]; p1003-16 tomato, Inducer 1 μM): 20.9 ± 10.7 mm
Root (mm) ([3]; p1003-16 tomato, Inducer 1 μM): 10.3 ± 12.7 mm
Hypocotyl (mm) [3, 15]: 20.1 ± 8.77 mm
Root (mm) [3, 15]: 9.19 ± 8.98 mm
Hypocotyl (mm) ([3]; p1003-16 tomato, Inducer 5 μM): 23.6 ± 11.4 mm
Root (mm) ([3]; p1003-16 tomato, Inducer 5 μM): 20.2 ± 14.9 mm
Hypocotyl (mm) ([3]; p1003-16 tomato, Inducer 10 μM): 25.9 ± 8.77 mm
Root (mm) ([3]; p1003-16 tomato, Inducer 10 μM): 29.1 ± 12.4 mm
Hypocotyl (mm) ([3]; p1003-16 tomato, Inducer 20 μM): 27.5 ± 9.10 mm
Root (mm) ([3]; p1003-16 tomato, Inducer 20 μM): 25.6 ± 11.4 mm
relation of inducer concentration to level of ethylene insensitivity ([3]; tomato p1002 and p1003 line, inducer 0.5-20 μM): directly related to the level of ethylene insensitivity
